Reference: patent US12122821B2, “Regulation of glucose metabolism using anti-CGRP antibodies” (H. LUNDBECK A/S, priority 2013, dated 2024)

What was measured:
Format in all cases: in vivo
[1] = system: Zucker diabetic fatty (ZDF) rat; assay: Fasting blood glucose, plasma insulin, C-peptide and HOMA-IR in ZDF rats (Example 3); conditions: vs vehicle ZDF
Protocol: (§1) For the groups treated with AB14, the antibody was administered once weekly via the caudal vein (i.v., 5 mL/kg) on days 1, 8, 15, and 22 at two different doses 20 mg/kg/week (groups 3 and 7) or 60 mg/kg/week (groups 4 and 8). All other groups were treated once weekly with vehicle 1 (i.v., 5 mL/kg). The intravenous treatments were performed in the morning on day 1, 8, 15, and 22 while under isoflurane anaesthesia. The volume of administration was individually adapted according to the most recent body weight.
(§2) All other groups were treated daily with vehicle 2 (p.o., 5 mL/kg) for 28 days. The most recent body weight was used to calculate the average volume of administration in each group.
(§3) A fasting (6 hours on day 0 from 8:00 am to 02:00 pm, and overnight on day 12, 19 and 26 from ˜6:00 pm to ˜8:00 am) was performed before each blood collection. Blood was collected at ˜2:00 pm, from the tip of the tail, on day 0 (before screening, 150 μL, potassium EDTA), and at ˜8:00 am prior to dosing on days 12 (110 μL, potassium EDTA), 19 (150 μL, potassium EDTA) and 26, (110 μL, potassium EDTA).
(§4) Fasting blood glucose (glucometers) was measured on days 0, 12, 19, and 26. Fasting plasma insulin, peptide-C (ELISA method), free fatty acids, triglycerides, total cholesterol (colorimetric method), and HDL-cholesterol (phosphotungstate precipitation, colorimetric method) were measured on day 0, and prior to dosing on days 12, 19, and day 26. Non HDL-cholesterol was calculated as total cholesterol—HDL-cholesterol. Fructosamine was measured on days 0, 19 and 28. HbA1c (DCA 2000) was measured on days 0 and 28.

[2] = system: Zucker diabetic fatty (ZDF) rat; assay: Body weight and food intake in ZDF rats (Example 3); conditions: pioglitazone 10 mg/kg/day, vs vehicle ZDF
Protocol: as §1, with “weight. […] All other groups were treated daily with vehicle 2 (p.o., 5 mL/kg) for 28 days. The most recent body weight was used to calculate the average volume of administration in each group. Body weight was measured twice a week during the 4 weeks of treatment. Food consumption was measured just before the screening procedure and then twice weekly over 24 h during the first three weeks of treatment. Food consumption was measured once weekly during the week of OGTT (week 4).” for “weight.”

[3] = system: Zucker diabetic fatty (ZDF) rat; assay: Oral glucose tolerance test on day 26 in ZDF rats (Example 3)
Protocol: The oral glucose tolerance test (OGTT) was performed as follows. On day 25, rats were fasted at ˜6:00 pm and an oral glucose tolerance test was performed the day after (on day 26). At ˜8:00 am (T-60) a blood collection (110 μL, EDTA) was performed for biochemical parameters measurements. One hour after (˜09:00 am), an oral glucose bolus (1.5 g/kg) was administered (T0). Blood glucose was measured (glucometer or colorimetric method in case of high glycaemia) on T-60, T0, T15, T30, T60, T90, T120, and T180 minutes. Area under the curve (AUC) was calculated based on the blood glucose values measured at T0. Plasma insulin and C-peptide were measured (ELISA method) on T-60, T15 (·40 μL of blood, EDTA), and T30 minutes (·40 μL of blood, EDTA).

[4] = system: Zucker diabetic fatty (ZDF) rat; assay: Fructosamine and HbA1c in ZDF rats (Example 3); conditions: vs vehicle ZDF
Protocol: as §1, §2, §4

[5] = system: Zucker diabetic fatty (ZDF) rat; assay: Plasma triglycerides, free fatty acids and cholesterol in ZDF rats (Example 3); conditions: for increase of plasma HDL-cholesterol / decrease of plasma non HDL-cholesterol levels: vs vehicle; for lowering of plasma free fatty acids levels: vs vehicle ZDF
Protocol: as §1, §2, §3, §4

[6] = day 12, pioglitazone 10 mg/kg/day
[7] = day 19, pioglitazone 10 mg/kg/day
[8] = day 26, pioglitazone 10 mg/kg/day
[9] = days 12, 19 and 26, pioglitazone 10 mg/kg/day
[10] = OGTT day 26, pioglitazone 10 mg/kg/day, vs vehicle ZDF

CCc1ccc(CCOc2ccc(CC3SC(=O)NC3=O)cc2)nc1 (centres unmarked) [pioglitazone]
reduction of HOMA-IR [1, 6]: 67% | reduction of HOMA-IR [1, 7]: 62% | reduction of HOMA-IR [1, 8]: 54% | plasma C-peptide levels [1, 9]: no effect | plasma insulin levels [1, 9]: no effect | body weight gain at the end of the treatment [2]: 3 fold | increase of cumulative food intake ([2]; NS): 14% | increase of C-peptide secretion (relative to T-60) at T15 [3, 10]: 21% | increase of C-peptide secretion (relative to T-60) at T30 [3, 10]: 22% | increase of insulin secretion (relative to T-60) at T30 [3, 10]: 5% | increase of insulin secretion (relative to T-60) at T15 ([3]; OGTT day 26, vs vehicle ZDF (pioglitazone 10 mg/kg/day)): 20% | reduction in blood glucose AUC (OGTT) ([3]; day 26, pioglitazone 10 mg/kg/day, metformin 200 mg/kg/day, vs vehicle ZDF): 54% | decrease of HbA1c ([4]; 28 days, pioglitazone 10 mg/kg/day, metformin 200 mg/kg/day): 44% | reduction of fructosamine levels ([4]; day 19, pioglitazone 10 mg/kg/day, metformin 200 mg/kg/day): 30% | reduction of fructosamine levels ([4]; day 28, pioglitazone 10 mg/kg/day): 25% | increase of plasma HDL-cholesterol [5, 6]: 38% | lowering of plasma free fatty acids levels [5, 6]: 35% | decrease of plasma non HDL-cholesterol levels [5, 7]: 49% | increase of plasma HDL-cholesterol [5, 7]: 17% | lowering of plasma free fatty acids levels [5, 7]: 17% | decrease of plasma non HDL-cholesterol levels [5, 8]: 47% | increase of plasma HDL-cholesterol [5, 8]: 19% | lowering of plasma free fatty acids levels [5, 8]: 30%
